Molecules are shown by their SMILES.

Data set [1] deals with CD206 expression in RAW264.7 cells. The data set can be described thus: Flow cytometry of CD206 in IL-4/IL-13 stimulated RAW264.7. The note with it: RAW264.7, IL-4/IL-13, 48 h. The class given is cell-based, mouse. The text has this: A previous study has reported that MK2 fostered M2‐like polarization of TAMs, driving a protumor and proangiogenic phenotype which in turn accelerates tumor progression.[21] We thus assessed the influence of compound 11 on macrophage polarization and function. Our experiments used human THP‐1 monocyte induced macrophages, mouse RAW264.7 macrophages, and mouse bone marrow‐derived macrophages (BMDM). These cells were induced into M2‐like macrophages using the classic IL‐4 and IL‐13 stimuli.
In the in vitro analysis, cells were harvested, stained with surface antibodies, and subsequently fixed and permeabilized using IC Buffer following manufacturer's guidelines. Antibodies targeting intracellular molecules were used for further staining as cells were incubated for an additional 30 min at 4°C. These cells were then filtered using a 300‐mesh cell sieve prior to analysis via CytoFLEX (Beckman Coulter Life Sciences).
Figure S3 Inhibition of pro-tumorigenic M2-like polarization in macrophages by compound 11. (A) Illustrates the treatment effects on various macrophage cells using Western blot analysis post IL-4/IL-13 exposure (30 minutes or the specified time period). (B) Examines CD206 expression in RAW264.7 cells via flow cytometry post 48hours treatment of compound 11 and IL-4/IL-13. […] IL-4/IL-13 (20 ng/mL) served as the stimulation control, while untreated cells were the baseline control. […]

The next data set concerns the target T1, TTK (Homo sapiens, UniProt P33981).
T1 construct: purchased Eurofins (Celle Lévescault)
T1 sequence (P33981 1-857): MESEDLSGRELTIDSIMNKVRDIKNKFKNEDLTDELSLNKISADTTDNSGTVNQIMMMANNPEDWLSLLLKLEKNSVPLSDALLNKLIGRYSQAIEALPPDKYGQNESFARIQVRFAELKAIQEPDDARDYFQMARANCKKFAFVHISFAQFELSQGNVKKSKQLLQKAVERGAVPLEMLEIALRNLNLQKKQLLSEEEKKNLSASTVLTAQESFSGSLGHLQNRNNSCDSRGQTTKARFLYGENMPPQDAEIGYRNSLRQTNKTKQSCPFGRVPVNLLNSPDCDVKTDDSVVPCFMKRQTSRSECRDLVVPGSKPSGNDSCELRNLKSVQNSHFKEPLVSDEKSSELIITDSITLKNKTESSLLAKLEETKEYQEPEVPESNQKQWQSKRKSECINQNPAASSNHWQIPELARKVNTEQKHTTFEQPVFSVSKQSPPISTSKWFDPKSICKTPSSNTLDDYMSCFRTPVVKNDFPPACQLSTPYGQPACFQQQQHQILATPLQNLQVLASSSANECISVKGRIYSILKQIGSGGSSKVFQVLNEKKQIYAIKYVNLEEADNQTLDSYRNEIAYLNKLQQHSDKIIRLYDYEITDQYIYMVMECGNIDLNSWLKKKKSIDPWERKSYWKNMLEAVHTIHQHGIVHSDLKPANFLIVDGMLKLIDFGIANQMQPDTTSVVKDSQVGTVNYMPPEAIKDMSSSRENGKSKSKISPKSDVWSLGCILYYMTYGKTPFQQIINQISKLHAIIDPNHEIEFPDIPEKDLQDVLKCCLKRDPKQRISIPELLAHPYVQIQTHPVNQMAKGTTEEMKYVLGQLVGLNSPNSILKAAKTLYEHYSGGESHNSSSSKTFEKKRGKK
Briefly: Eurofins kinase selectivity profile, TTK. The class given is biochemical. As for the experimental part: (§1) Subsequently, to ascertain whether the high potency of compound 11 was specific for MK2, an additional 380 human recombinant protein kinases were screened.
(§2) To assess the impact of various compounds on MK2 kinase activity, we utilized the ADP‐Glo Assay Kit (Promega) following the manufacturer's instructions. Luminescence measurements were taken using a SpectraMax Paradigm reader. The inhibition percentage was calculated using the following formula: ((specific signalDMSO control − specific signal inhibitor)/(specific signalDMSO control)) × 100%. The IC50 values were determined employing dose–response curve fitting via Prism (Graph Pad). Additionally, Eurofins company (Celle Lévescault) conducted the analysis on compound 11’s inhibitory activity against 380 other human recombinant kinases at various concentrations.

In a further data set the target is MK2 (Homo sapiens, UniProt P49137). Briefly: Kinase kinetic analysis of irreversible inhibition (Mobility Shift Assay, preincubation then 100-fold dilution). The class given is biochemical. As to conditions: preincubation at 100 times the IC50, monitored continuously. The text has this:
To assess its role as an irreversible MK2 kinase inhibitor, we conducted a kinetic study on compound 11. The well‐known reversible ATP‐competitive MK2 inhibitor, PF‐3644022, served as a negative control. […] The kinase‐inhibitor mixture was subsequently diluted by a factor of 100 with a reaction buffer that included both substrate peptide and ATP. Under these circumstances, the activity of MK2 kinase was continuously monitored by assessing the phosphorylated substrate percentage. […] The enzyme activity curve almost overlapped with the curve of background group, which included only the substrate peptide without inhibitors and MK2 kinase.
In the kinase kinetic analysis to elucidate the irreversible inhibition of MK2 by compound 11, a Mobility Shift Assay was conducted. […] The EZ Reader (Caliper Life Sciences, MA) was then used to assess the kinase activity of the mixture, which was monitored continuously for 1 hour.

Data set [2] in a line: Cell viability assay (CCK-8), H1437. The note with it: H1437 cells (non-small cell lung carcinoma), H1437, human non-small cell lung carcinoma, read-out: IC50 (μM) mean ± SD, cytotoxicity. The format is cell-based. As for the experimental part:
(§3) In cellular experiments, cells are seeded into either 6-well or 96-well plates and incubated overnight, proceeding with treatments as described in the figure legends or methods section. The cell inoculation numbers are outlined as follows: For assays measuring cell viability, between 3,000 to 5,000 cells are seeded per well in 96-well plates. For other cellular assays, the seeding density ranges from 5×10^5 to 1×10^6 cells per well in 6-well plates.
(§4) Cells was plated into 96-well plates and incubated overnight prior to introduction of varying concentrations of compounds or control solvent. Following a 72-hour exposure period, cell viability was determined using a Cell Counting Kit-8 assay (Life-iLab, China). Dose-response curves were fitted using a four-parameter method facilitated by SoftMax Pro, which was subsequently used for the computation of IC50 values.

Data set [3] can be described thus: Cell viability assay (CCK-8), MC38. As to conditions: mouse, MC38 cells (colorectal carcinoma), MC38, murine colorectal carcinoma, read-out: IC50 (μM) mean ± SD, cytotoxicity. The class given is cell-based. As for the experimental part:
as §3, §4

For another data set, the target named is T2, p70S6Kb (Homo sapiens, UniProt Q9UBS0).
T2 construct: purchased Eurofins (Celle Lévescault)
T2 sequence (Q9UBS0 whole entry): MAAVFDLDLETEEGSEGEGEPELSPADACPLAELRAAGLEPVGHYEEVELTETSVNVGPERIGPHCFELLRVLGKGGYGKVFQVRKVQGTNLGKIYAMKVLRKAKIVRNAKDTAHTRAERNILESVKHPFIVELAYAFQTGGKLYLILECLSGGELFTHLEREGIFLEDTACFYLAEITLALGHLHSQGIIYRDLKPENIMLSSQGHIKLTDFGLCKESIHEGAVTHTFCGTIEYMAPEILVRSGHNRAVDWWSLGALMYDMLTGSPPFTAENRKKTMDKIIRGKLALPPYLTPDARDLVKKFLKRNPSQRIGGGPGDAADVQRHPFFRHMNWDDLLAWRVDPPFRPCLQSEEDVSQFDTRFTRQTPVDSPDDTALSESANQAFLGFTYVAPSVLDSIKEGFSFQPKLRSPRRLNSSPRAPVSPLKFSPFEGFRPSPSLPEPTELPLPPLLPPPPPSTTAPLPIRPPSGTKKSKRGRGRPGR
The data set can be described thus: Eurofins kinase selectivity profile, p70S6Kb. The format is biochemical. The protocol: as §1, §2

Chain of MK2 (P49137 whole entry): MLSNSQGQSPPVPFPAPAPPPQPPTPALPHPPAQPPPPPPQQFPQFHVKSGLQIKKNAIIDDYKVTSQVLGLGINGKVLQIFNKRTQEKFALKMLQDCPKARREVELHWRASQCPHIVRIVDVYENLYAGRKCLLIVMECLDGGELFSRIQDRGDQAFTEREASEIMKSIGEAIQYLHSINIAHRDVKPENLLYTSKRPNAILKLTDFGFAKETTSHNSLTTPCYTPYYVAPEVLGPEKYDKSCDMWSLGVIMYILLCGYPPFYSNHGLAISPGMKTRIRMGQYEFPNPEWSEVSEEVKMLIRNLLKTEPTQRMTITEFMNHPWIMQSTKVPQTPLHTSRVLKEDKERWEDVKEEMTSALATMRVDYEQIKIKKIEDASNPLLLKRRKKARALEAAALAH

`C=CC(=O)Nc1cc(-c2cc(-c3cc4c([nH]3)CCNC4=O)ccn2)ccc1OC(F)(F)F` [compound 11]: in data set [1], the “effect on CD206 expression” value is given as “A similar result”. In addition, the IC50 against TTK and at p70S6Kb was above 1000 nM each time. The inhibition at 0.01 µM on TTK (TTK(h), 10 nM, read-out: Inhibition rate) is -1%; on p70S6Kb (p70S6K(h), 10 nM, read-out: Inhibition rate) it was -9%. The inhibition at 0.1 µM at TTK (TTK(h), 100 nM, read-out: Inhibition rate) was 7%; on p70S6Kb (p70S6K(h), 100 nM, read-out: Inhibition rate) it was -16%. Also, the inhibition at 1 µM is 43% on TTK (TTK(h), 1000 nM, read-out: Inhibition rate) and -6% at p70S6Kb (p70S6K(h), 1000 nM, read-out: Inhibition rate). For the same compound, at MK2, the “MK2 kinase activity after 30 min preincubation with inhibitor and 100-fold dilution” value is “sustained and potent inhibition of kinase activity”. Moreover, the values for the IC50 at 72 h in data set [2] and in data set [3] were 33.4 ± 0.6 µM and 48.3 ± 10.5 µM, respectively.

For the origin of these results see publication PMC11233931, “Remodeling tumor‐associated macrophage for anti‐cancer effects by rational design of irreversible inhibition of mitogen‐activated protein kinase‐activated protein kinase 2” (MedComm, 2024).
